From paper PMC8550792, “Evolution of kinase polypharmacology across HSP90 drug discovery” (Cell Chemical Biology, 2021)

Columns and labels:
Test in all cases: biochemical
Type in all cases: biochemical
382 unique human kinases [1] = molecular target: T1, 382 unique human kinases (Homo sapiens, UniProt Q92630); details: DYRK2, 10 uM; for remaining activity at 10 µM: read-out: % Enzyme Activity (relative to DMSO controls)
T1 construct: purchased Reaction Biology (HotSpot contract assay)
T1 sequence (Q92630 1-601): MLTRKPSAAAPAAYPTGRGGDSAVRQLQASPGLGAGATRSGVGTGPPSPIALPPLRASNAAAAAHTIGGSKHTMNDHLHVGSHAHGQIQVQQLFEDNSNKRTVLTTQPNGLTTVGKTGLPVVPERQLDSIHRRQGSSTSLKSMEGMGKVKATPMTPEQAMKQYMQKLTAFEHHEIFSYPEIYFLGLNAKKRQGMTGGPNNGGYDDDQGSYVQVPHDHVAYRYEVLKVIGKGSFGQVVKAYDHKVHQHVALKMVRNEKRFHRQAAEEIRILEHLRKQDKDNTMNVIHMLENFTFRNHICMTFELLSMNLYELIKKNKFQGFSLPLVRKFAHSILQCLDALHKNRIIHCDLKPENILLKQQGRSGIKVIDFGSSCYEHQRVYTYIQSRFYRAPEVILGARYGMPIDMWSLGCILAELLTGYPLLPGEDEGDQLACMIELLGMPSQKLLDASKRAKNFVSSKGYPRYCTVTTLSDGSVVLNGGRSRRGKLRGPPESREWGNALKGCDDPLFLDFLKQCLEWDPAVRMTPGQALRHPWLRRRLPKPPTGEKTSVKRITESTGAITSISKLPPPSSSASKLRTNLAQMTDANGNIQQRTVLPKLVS

382 unique human kinases [2] = molecular target: T2, 382 unique human kinases (Homo sapiens, UniProt Q06187, P190K); details: BTK (P190K), 10 uM; for remaining activity at 10 µM: read-out: % Enzyme Activity (relative to DMSO controls)
T2 construct: purchased Reaction Biology (HotSpot contract assay)

382 unique human kinases [3] = molecular target: T3, 382 unique human kinases (Homo sapiens, UniProt Q96L34); details: kinase MARK4, compound 10 uM; for remaining activity at 10 µM: read-out: % Enzyme Activity (relative to DMSO controls)
T3 construct: purchased Reaction Biology (HotSpot contract assay)
T3 sequence (Q96L34 1-752): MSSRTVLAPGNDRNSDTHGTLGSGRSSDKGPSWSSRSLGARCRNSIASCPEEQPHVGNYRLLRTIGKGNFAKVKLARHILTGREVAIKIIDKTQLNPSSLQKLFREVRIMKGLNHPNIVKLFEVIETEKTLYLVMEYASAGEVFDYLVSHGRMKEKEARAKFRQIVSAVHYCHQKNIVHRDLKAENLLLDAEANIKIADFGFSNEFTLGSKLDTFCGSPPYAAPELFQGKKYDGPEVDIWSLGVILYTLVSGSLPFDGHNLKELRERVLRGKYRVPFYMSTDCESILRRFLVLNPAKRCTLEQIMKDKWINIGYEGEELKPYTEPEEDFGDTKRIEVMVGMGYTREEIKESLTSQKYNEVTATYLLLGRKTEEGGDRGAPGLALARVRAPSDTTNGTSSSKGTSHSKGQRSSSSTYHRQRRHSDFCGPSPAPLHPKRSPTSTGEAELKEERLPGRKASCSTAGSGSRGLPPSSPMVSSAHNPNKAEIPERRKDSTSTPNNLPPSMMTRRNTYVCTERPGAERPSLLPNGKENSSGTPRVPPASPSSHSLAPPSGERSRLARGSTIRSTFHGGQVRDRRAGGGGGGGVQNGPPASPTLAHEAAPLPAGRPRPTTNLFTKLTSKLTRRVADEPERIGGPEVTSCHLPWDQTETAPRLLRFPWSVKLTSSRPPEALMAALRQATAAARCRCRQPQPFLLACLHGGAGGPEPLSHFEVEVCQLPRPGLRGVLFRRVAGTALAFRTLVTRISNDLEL

382 unique human kinases [4] = molecular target: T4, 382 unique human kinases (Homo sapiens, UniProt Q9UKI8); details: TLK1, 10 uM; for remaining activity at 10 µM: read-out: % Enzyme Activity (relative to DMSO controls)
T4 construct: purchased Reaction Biology (HotSpot contract assay)
T4 sequence (Q9UKI8 1-766): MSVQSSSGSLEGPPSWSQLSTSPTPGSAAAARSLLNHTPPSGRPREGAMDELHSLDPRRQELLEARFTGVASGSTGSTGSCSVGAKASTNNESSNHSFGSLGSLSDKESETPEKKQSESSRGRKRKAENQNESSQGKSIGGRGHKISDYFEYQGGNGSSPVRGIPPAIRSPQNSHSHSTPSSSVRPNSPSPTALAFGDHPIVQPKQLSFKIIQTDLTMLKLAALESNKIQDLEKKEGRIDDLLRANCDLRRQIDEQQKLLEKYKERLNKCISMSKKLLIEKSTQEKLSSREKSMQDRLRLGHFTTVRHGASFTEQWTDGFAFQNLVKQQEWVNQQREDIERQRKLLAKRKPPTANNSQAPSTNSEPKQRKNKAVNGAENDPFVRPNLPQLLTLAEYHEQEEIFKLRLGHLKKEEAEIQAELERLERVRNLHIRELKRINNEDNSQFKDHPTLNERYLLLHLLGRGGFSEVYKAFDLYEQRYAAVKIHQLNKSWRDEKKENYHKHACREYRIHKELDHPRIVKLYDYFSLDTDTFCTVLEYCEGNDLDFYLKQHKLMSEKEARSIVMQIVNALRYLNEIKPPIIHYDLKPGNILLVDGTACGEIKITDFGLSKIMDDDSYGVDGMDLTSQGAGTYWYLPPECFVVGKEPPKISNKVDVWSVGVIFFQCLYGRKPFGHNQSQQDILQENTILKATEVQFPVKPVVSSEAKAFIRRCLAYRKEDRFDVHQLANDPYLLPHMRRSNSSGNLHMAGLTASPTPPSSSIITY

382 unique human kinases [5] = molecular target: T5, 382 unique human kinases (Homo sapiens, UniProt P80192); details: MLK1/MAP3K9, 10 uM; for remaining activity at 10 µM: read-out: % Enzyme Activity (relative to DMSO controls)
T5 construct: purchased Reaction Biology (HotSpot contract assay)

382 unique human kinases [6] = molecular target: T6, 382 unique human kinases (Homo sapiens, UniProt P43405); details: SYK, 10 uM; for remaining activity at 10 µM: read-out: % Enzyme Activity (relative to DMSO controls)
T6 construct: purchased Reaction Biology (HotSpot contract assay)

382 unique human kinases [7] = molecular target: T7, 382 unique human kinases (Homo sapiens, UniProt Q9UM73, L1152R); details: ALK (L1152R), [ATP] 30 µM, compound 10 uM; for remaining activity at 10 µM: read-out: % Enzyme Activity (relative to DMSO controls)
T7 construct: purchased Reaction Biology (HotSpot contract assay)

382 unique human kinases [8] = molecular target: T8, 382 unique human kinases (Homo sapiens, UniProt P16234, T674I); details: PDGFRa (T674I), [ATP] 20 µM, compound 10 uM; for remaining activity at 10 µM: read-out: % Enzyme Activity (relative to DMSO controls)
T8 construct: purchased Reaction Biology (HotSpot contract assay)
T8 sequence (P16234 24-1089 T674I): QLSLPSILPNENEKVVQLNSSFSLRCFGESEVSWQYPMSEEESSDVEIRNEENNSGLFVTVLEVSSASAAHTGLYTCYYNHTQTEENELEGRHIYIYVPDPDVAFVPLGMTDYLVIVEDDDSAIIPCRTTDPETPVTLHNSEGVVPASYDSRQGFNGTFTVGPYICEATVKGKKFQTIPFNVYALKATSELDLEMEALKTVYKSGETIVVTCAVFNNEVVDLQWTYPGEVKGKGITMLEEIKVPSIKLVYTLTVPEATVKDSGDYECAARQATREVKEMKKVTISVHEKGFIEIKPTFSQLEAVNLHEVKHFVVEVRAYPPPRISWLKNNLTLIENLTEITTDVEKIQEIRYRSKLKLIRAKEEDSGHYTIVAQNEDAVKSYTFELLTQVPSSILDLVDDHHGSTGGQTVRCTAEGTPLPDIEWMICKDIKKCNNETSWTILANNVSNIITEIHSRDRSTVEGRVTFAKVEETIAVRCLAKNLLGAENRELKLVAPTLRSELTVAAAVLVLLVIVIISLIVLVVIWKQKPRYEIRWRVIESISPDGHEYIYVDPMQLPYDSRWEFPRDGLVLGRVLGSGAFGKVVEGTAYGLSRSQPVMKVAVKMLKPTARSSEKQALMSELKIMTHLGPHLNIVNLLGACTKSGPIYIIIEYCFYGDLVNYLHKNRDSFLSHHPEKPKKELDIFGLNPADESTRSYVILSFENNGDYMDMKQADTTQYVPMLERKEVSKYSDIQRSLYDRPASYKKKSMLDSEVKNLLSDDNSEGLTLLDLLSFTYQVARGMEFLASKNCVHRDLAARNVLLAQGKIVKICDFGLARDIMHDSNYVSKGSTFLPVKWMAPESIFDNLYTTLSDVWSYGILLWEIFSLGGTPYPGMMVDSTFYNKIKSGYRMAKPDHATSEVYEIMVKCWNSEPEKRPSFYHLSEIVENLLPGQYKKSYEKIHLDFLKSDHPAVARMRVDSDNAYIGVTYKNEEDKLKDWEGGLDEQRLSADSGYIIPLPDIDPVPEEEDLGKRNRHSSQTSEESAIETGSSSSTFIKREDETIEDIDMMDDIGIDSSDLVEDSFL

T2 sequence (Q06187 whole entry P190K): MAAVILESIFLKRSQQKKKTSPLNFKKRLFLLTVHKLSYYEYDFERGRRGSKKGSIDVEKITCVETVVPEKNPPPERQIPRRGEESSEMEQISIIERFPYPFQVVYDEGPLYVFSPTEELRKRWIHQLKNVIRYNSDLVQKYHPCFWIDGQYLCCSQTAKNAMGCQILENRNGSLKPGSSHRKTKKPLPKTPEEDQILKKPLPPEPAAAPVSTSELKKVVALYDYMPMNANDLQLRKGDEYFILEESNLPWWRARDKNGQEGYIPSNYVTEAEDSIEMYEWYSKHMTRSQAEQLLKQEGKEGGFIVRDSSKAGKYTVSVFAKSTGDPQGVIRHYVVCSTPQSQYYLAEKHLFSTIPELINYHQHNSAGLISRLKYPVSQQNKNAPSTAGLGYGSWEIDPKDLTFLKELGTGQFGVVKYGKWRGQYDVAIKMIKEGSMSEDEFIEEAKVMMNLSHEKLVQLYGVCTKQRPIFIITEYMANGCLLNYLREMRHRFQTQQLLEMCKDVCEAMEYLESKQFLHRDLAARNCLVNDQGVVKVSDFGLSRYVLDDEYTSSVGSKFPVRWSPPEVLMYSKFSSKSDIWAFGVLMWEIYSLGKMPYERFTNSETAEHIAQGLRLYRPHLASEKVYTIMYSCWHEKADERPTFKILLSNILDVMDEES
T7 sequence (Q9UM73 19-1620 L1152R): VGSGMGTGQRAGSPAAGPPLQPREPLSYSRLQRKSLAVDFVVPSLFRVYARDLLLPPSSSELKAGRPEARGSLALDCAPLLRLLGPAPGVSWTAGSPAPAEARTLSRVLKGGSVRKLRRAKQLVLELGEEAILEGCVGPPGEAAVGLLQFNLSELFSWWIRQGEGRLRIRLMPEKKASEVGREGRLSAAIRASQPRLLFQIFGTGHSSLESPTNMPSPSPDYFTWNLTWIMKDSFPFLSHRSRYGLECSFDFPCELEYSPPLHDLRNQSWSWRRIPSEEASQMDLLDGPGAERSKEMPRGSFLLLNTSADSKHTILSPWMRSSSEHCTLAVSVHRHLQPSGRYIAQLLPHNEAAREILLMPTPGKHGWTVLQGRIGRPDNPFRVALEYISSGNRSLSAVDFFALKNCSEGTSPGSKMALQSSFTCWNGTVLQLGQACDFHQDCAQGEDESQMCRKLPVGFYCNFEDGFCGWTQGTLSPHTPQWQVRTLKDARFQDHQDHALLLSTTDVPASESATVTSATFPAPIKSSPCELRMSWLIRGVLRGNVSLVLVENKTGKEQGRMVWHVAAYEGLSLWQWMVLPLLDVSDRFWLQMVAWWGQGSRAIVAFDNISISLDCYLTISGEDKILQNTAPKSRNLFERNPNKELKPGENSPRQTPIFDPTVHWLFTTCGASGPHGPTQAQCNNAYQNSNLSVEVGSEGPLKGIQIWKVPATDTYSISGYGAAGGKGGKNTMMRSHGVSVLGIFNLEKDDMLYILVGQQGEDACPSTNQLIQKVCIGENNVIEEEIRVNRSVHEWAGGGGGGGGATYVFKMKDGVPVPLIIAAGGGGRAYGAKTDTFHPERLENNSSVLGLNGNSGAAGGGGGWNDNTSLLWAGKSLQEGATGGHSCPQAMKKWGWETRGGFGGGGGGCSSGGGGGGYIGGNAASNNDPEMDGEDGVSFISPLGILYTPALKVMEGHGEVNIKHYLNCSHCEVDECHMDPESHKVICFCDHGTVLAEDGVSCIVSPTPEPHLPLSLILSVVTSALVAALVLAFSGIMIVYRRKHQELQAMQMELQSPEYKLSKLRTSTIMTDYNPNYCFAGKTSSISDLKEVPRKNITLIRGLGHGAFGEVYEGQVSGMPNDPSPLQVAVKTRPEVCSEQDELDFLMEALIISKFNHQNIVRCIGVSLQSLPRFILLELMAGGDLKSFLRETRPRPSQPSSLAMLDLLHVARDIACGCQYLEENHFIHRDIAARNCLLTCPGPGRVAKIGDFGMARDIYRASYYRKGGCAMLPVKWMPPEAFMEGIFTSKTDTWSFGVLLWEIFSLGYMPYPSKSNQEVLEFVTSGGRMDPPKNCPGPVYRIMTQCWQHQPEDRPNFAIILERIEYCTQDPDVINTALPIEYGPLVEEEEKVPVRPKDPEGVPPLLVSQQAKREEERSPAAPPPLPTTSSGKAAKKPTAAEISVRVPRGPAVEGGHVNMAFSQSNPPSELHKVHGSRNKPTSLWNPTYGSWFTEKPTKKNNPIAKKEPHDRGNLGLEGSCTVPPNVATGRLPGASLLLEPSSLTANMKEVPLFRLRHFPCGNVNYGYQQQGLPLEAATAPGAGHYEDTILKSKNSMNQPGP
T5 sequence (P80192 whole entry): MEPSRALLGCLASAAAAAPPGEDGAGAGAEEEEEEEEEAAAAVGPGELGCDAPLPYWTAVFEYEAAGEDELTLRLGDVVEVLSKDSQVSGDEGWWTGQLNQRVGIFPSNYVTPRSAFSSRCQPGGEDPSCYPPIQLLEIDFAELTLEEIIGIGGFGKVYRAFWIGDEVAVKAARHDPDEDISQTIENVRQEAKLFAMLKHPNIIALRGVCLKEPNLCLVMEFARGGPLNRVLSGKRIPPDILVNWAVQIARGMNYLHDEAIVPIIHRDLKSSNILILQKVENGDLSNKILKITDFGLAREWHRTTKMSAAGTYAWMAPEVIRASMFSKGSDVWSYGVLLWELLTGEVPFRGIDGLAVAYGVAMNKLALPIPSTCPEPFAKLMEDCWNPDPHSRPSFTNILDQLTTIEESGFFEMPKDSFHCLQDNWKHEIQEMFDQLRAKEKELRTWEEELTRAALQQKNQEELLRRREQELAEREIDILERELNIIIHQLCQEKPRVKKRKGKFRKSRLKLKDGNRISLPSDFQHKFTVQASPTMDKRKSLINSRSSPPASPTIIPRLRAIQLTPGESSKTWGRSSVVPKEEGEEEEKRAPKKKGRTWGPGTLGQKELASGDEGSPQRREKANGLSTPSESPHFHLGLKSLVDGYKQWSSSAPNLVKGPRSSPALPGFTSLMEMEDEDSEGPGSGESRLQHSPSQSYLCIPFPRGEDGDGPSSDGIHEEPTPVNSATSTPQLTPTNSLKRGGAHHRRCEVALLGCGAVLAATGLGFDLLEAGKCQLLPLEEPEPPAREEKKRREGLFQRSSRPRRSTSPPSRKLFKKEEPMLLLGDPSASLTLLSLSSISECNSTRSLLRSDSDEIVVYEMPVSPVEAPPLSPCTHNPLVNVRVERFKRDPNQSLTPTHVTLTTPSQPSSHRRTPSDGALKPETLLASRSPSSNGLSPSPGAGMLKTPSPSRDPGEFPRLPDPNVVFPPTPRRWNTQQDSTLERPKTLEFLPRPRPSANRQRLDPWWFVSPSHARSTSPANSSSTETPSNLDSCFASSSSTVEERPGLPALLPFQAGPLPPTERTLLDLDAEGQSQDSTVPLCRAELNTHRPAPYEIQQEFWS

Compound	remaining activity at 10 µM (382 unique human kinases [1])	remaining activity at 10 µM (382 unique human kinases [2])	remaining activity at 10 µM (382 unique human kinases [3])	remaining activity at 10 µM (382 unique human kinases [4])	remaining activity at 10 µM (382 unique human kinases [5])	remaining activity at 10 µM (382 unique human kinases [6])	remaining activity at 10 µM (382 unique human kinases [7])	remaining activity at 10 µM (382 unique human kinases [8])	% Enzyme Activity (relative to DMSO controls) (382 unique human kinases [1])	% Enzyme Activity (relative to DMSO controls) (382 unique human kinases [2])	% Enzyme Activity (relative to DMSO controls) (382 unique human kinases [3])	% Enzyme Activity (relative to DMSO controls) (382 unique human kinases [4])	% Enzyme Activity (relative to DMSO controls) (382 unique human kinases [5])	% Enzyme Activity (relative to DMSO controls) (382 unique human kinases [6])	% Enzyme Activity (relative to DMSO controls) (382 unique human kinases [7])	% Enzyme Activity (relative to DMSO controls) (382 unique human kinases [8])
CC(C)c1cc(-c2n[nH]c(=O)n2-c2ccc3c(ccn3C)c2)c(O)cc1O [Ganetespib (STA9090)]	75%	62.1%	91%	65.8%												
CC(C)c1cc(-c2n[nH]c(=O)n2-c2ccc3c(ccn3C)c2)c(O)cc1O [Ganetespib]					92.1%	94%	14.2%	33.8%								
CCNC(=O)c1noc(-c2cc(C(C)C)c(O)cc2O)c1-c1ccc(CN2CCOCC2)cc1 [Luminespib (AUY-922)]	99.7%	61.9%	97.1%	86.2%					98.38%	61.43%	95.99%	84.15%				
CCNC(=O)c1noc(-c2cc(C(C)C)c(O)cc2O)c1-c1ccc(CN2CCOCC2)cc1 [Luminespib]					103%	102%	90.7%	91.6%					102.58%	101.25%	90.08%	89.59%
